Source: ChEMBL document CHEMBL4813985, “Lead optimization generates selenium-containing miconazole CYP51 inhibitors with improved pharmacological profile for the treatment of fungal infections” (Eur J Med Chem, 2021)
≈ marks a conversion by molar mass, not a printed value.

What was measured:
Type in all cases: functional
Candida albicans [1] = test: Antifungal activity against fluconazole-resistant Candida albicans 632 assessed as inhibition of microbial growth after 24 hrs by broth microdilution method
Candida albicans [2] = test: Antifungal activity against fluconazole-resistant Candida albicans 17# assessed as inhibition of microbial growth after 24 hrs by broth microdilution method
Candida albicans [3] = test: Potency index, ratio of fluconazole MIC to test compound MIC for Candida albicans CPCC400616 measured after 24 hrs by broth microdilution assay
Nakaseomyces glabratus = test: Antifungal activity against Candida glabrata measured after 24 hrs by broth microdilution assay
[Candida] zeylanoides = Antifungal activity against Candida zeylanoides CMGCC2.3739 measured after 24 hrs by broth microdilution assay; settings: Dujonia zeylanoides
Aspergillus fumigatus = test: Antifungal activity against Aspergillus fumigatus CMGCC3.7795 measured after 72 hrs by broth microdilution assay
Candida albicans [4] = test: Antifungal activity against fluconazole-resistant Candida albicans 904 assessed as inhibition of microbial growth after 24 hrs by broth microdilution method
Cryptococcus neoformans = test: Antifungal activity against Cryptococcus neoformans CMGCC2.3161 measured after 72 hrs by broth microdilution assay
Candida albicans [5] = test: Antifungal activity against Candida albicans CPCC400616 measured after 24 hrs by broth microdilution assay
Candida parapsilosis = test: Antifungal activity against Candida parapsilosis ATCC 22019 measured after 24 hrs by broth microdilution assay; settings: Lodderomyces parapsilosis
Candida albicans [6] = test: Antifungal activity against fluconazole-resistant Candida albicans CaR assessed as inhibition of microbial growth after 24 hrs by broth microdilution method
Candida albicans [7] = test: Antifungal activity against fluconazole-resistant Candida albicans 901 assessed as inhibition of microbial growth after 24 hrs by broth microdilution method
Candida albicans [8] = test: Antifungal activity against Candida albicans ATCC SC5314 measured after 24 hrs by broth microdilution assay
Pichia kudriavzevii = test: Antifungal activity against Candida krusei AS2.1045 measured after 24 hrs by broth microdilution assay

## COc1ccc([Se]C(Cn2ccnc2)c2ccc(Cl)cc2Cl)cc1 (configuration not stated)
Candida albicans [1]
  MIC: 2 µg/mL
Candida albicans [2]
  MIC: 2 µg/mL
Candida albicans [3]
  Ratio: 8
Nakaseomyces glabratus
  MIC: 0.25 µg/mL (≈ 0.587 µM)
[Candida] zeylanoides
  MIC: 0.5 µg/mL (≈ 1.17 µM)
Aspergillus fumigatus
  MIC: 16 µg/mL (≈ 37.5 µM)
Candida albicans [4]
  MIC: 8 µg/mL
Cryptococcus neoformans
  MIC: 0.25 µg/mL (≈ 0.587 µM)
Candida albicans [5]
  MIC: 0.13 µg/mL (≈ 0.305 µM)
Candida parapsilosis
  MIC: 0.25 µg/mL (≈ 0.587 µM)
Candida albicans [6]
  MIC: 8 µg/mL
Candida albicans [7]
  MIC: 8 µg/mL
Candida albicans [8]
  MIC: 0.03 µg/mL (≈ 0.0704 µM)
Pichia kudriavzevii
  MIC: 0.02 µg/mL (≈ 0.0469 µM)

## COc1ccccc1[Se]C(Cn1ccnc1)c1ccc(F)cc1F (configuration not stated)
Candida albicans [1]
  MIC: 16 µg/mL
Candida albicans [2]
  MIC: 8 µg/mL
Candida albicans [3]
  Ratio: 8
Nakaseomyces glabratus
  MIC: 0.25 µg/mL (≈ 0.636 µM)
[Candida] zeylanoides
  MIC: 0.13 µg/mL (≈ 0.331 µM)
Aspergillus fumigatus
  MIC: 8 µg/mL (≈ 20.3 µM)
Candida albicans [4]
  MIC: 8 µg/mL
Cryptococcus neoformans
  MIC: 1 µg/mL (≈ 2.54 µM)
Candida albicans [5]
  MIC: 1 µg/mL (≈ 2.54 µM)
Candida parapsilosis
  MIC: 0.13 µg/mL (≈ 0.331 µM)
Candida albicans [6]
  MIC: 8 µg/mL
Candida albicans [7]
  MIC: 4 µg/mL
Candida albicans [8]
  MIC: 0.02 µg/mL (≈ 0.0509 µM)
Pichia kudriavzevii
  MIC: 0.5 µg/mL (≈ 1.27 µM)

## COc1ccc(C[Se]C(Cn2cncn2)c2ccc(F)cc2F)cc1 (configuration not stated)
Candida albicans [1]
  MIC: > 128 µg/mL
Candida albicans [2]
  MIC: 64 µg/mL
Nakaseomyces glabratus
  MIC: 2 µg/mL (≈ 4.9 µM)
[Candida] zeylanoides
  MIC: 32 µg/mL (≈ 78.4 µM)
Aspergillus fumigatus
  MIC: 4 µg/mL (≈ 9.8 µM)
Candida albicans [4]
  MIC: > 128 µg/mL
Cryptococcus neoformans
  MIC: 32 µg/mL (≈ 78.4 µM)
Candida albicans [5]
  MIC: 1 µg/mL (≈ 2.45 µM)
Candida parapsilosis
  MIC: > 128 µg/mL
Candida albicans [6]
  MIC: 128 µg/mL
Candida albicans [7]
  MIC: > 128 µg/mL
Candida albicans [8]
  MIC: 2 µg/mL (≈ 4.9 µM)
Pichia kudriavzevii
  MIC: 32 µg/mL (≈ 78.4 µM)

## Cc1ccc(C)c([Se]C(Cn2ccnc2)c2ccc(F)cc2F)c1 (configuration not stated)
Candida albicans [1]
  MIC: 2 µg/mL
Candida albicans [2]
  MIC: 4 µg/mL
Candida albicans [3]
  Ratio: 8
Nakaseomyces glabratus
  MIC: 0.5 µg/mL (≈ 1.28 µM)
[Candida] zeylanoides
  MIC: 0.5 µg/mL (≈ 1.28 µM)
Aspergillus fumigatus
  MIC: 8 µg/mL (≈ 20.4 µM)
Candida albicans [4]
  MIC: 8 µg/mL
Cryptococcus neoformans
  MIC: 0.25 µg/mL (≈ 0.639 µM)
Candida albicans [5]
  MIC: 0.25 µg/mL (≈ 0.639 µM)
Candida parapsilosis
  MIC: 0.13 µg/mL (≈ 0.332 µM)
Candida albicans [6]
  MIC: 8 µg/mL
Candida albicans [7]
  MIC: 4 µg/mL
Candida albicans [8]
  MIC: 0.06 µg/mL (≈ 0.153 µM)
Pichia kudriavzevii
  MIC: 0.13 µg/mL (≈ 0.332 µM)

## CCc1ccccc1[Se]C(Cn1ccnc1)c1ccc(Cl)cc1Cl (configuration not stated)
Candida albicans [1]
  MIC: 16 µg/mL
Candida albicans [2]
  MIC: 4 µg/mL
Candida albicans [3]
  Ratio: 8
Nakaseomyces glabratus
  MIC: 0.13 µg/mL (≈ 0.306 µM)
[Candida] zeylanoides
  MIC: 0.5 µg/mL (≈ 1.18 µM)
Aspergillus fumigatus
  MIC: 8 µg/mL (≈ 18.9 µM)
Candida albicans [4]
  MIC: 1 µg/mL
Cryptococcus neoformans
  MIC: 0.5 µg/mL (≈ 1.18 µM)
Candida albicans [5]
  MIC: 0.25 µg/mL (≈ 0.589 µM)
Candida parapsilosis
  MIC: 0.13 µg/mL (≈ 0.306 µM)
Candida albicans [6]
  MIC: 2 µg/mL
Candida albicans [7]
  MIC: 4 µg/mL
Candida albicans [8]
  MIC: 0.03 µg/mL (≈ 0.0707 µM)
Pichia kudriavzevii
  MIC: 0.5 µg/mL (≈ 1.18 µM)

## Cc1ccc(C[Se]C(Cn2cncn2)c2ccc(F)cc2F)cc1 (configuration not stated)
Candida albicans [1]
  MIC: > 128 µg/mL
Candida albicans [2]
  MIC: 64 µg/mL
Nakaseomyces glabratus
  MIC: 2 µg/mL (≈ 5.1 µM)
[Candida] zeylanoides
  MIC: 32 µg/mL (≈ 81.6 µM)
Aspergillus fumigatus
  MIC: 8 µg/mL (≈ 20.4 µM)
Candida albicans [4]
  MIC: > 128 µg/mL
Cryptococcus neoformans
  MIC: 4 µg/mL (≈ 10.2 µM)
Candida albicans [5]
  MIC: 2 µg/mL (≈ 5.1 µM)
Candida parapsilosis
  MIC: 128 µg/mL (≈ 326 µM)
Candida albicans [6]
  MIC: > 128 µg/mL
Candida albicans [7]
  MIC: > 128 µg/mL
Candida albicans [8]
  MIC: 2 µg/mL (≈ 5.1 µM)
Pichia kudriavzevii
  MIC: 128 µg/mL (≈ 326 µM)
